Source: patent US20240226125A1, “USE OF SOTAGLIFLOZIN FOR THE TREATMENT OF PATIENTS WITH TYPE 1 DIABETES MELLITUS” (priority 2019, published 2024)

How the values were obtained:
[1] = tested on: adult patients diagnosed with T1D who have inadequate glycemic control with insulin therapy; assay: inTandem 3 phase 3 randomized double-blind placebo-controlled study; type: in vivo, human; conditions: for A1C (%) LS Mean Difference (SE) / Body weight (kg) LS Mean Difference (SE) / Fasting plasma glucose (mg/dL) LS Mean Difference (SE) / SBP (mmHg) LS Mean Difference (SE): 400 mg vs placebo; for A1C (%) LS Mean Difference (SE) / Body weight (kg) LS Mean Difference (SE) / Fasting plasma glucose (mg/dL) LS Mean Difference (SE) / SBP (mmHg) LS Mean Difference (SE) / A1C (%) LS Mean change (SE) / Body weight (kg) LS Mean change (SE) / Fasting plasma glucose (mg/dL) LS Mean change (SE) / SBP (mmHg) LS Mean change (SE): InTandem3; for A1C (%) LS Mean change (SE) / Body weight (kg) LS Mean change (SE) / Fasting plasma glucose (mg/dL) LS Mean change (SE) / SBP (mmHg) LS Mean change (SE): 400 mg
[2] = tested on: adult patients with Type 1 Diabetes Mellitus who have inadequate glycemic control with insulin therapy; assay: inTandem 1 and inTandem 2 pooled double-blind placebo-controlled clinical studies, efficacy; type: in vivo, human; conditions: for 2-hour postprandial plasma glucose (mg/dL) LS Mean Difference (SE) / A1C (%) LS Mean Difference (SE) / Body weight (kg) LS Mean Difference (SE) / DDS2 (score) LS Mean Difference (SE) / DTSQ (score) LS Mean Difference (SE) / Fasting plasma glucose (mg/dL) LS Mean Difference (SE) / SBP (mmHg) LS Mean Difference (SE) / Time in range (%) LS Mean Difference (SE): 200 mg vs placebo
[3] = Baseline BMI <27 kg/m^2, Week 24
[4] = Baseline BMI ≥27 kg/m^2, Week 24
[5] = Sotagliflozin 400 mg vs placebo, Week 24
[6] = Sotagliflozin 400 mg, Week 16, SBP ≥130 mm Hg at baseline
[7] = Sotagliflozin 400 mg, Week 24, insulin pump users
[8] = Sotagliflozin 400 mg, Week 24, nonpump users
[9] = Baseline BMI <27 kg/m^2, Week 52
[10] = Baseline BMI ≥27 kg/m^2, Week 52
[11] = 200 mg, Baseline BMI <27 kg/m^2, Week 24
[12] = 200 mg, Baseline BMI <27 kg/m^2, Week 52

With `CCOc1ccc(Cc2cc([C@@H]3O[C@H](SC)[C@@H](O)[C@H](O)[C@H]3O)ccc2Cl)cc1` [sotagliflozin, (2S,3R,4R,5S,6R)-2-(4-chloro-3-(4-ethoxybenzyl)phenyl)-6-(methylthio)tetrahydro-2H-pyran-3,4,5-triol] the “primary endpoint (A1C <7.0% at Week 24, no severe hypoglycemia, no DKA)” value ([1]; 400 mg versus placebo) was “reached its primary endpoint”, the “A1C (%) LS Mean Difference (SE)” value [1, 3] was −0.37 (0.068) % and the “Body weight (kg) LS Mean Difference (SE)” value [1, 3] was −2.47 (0.213) kg. The “Fasting plasma glucose (mg/dL) LS Mean Difference (SE)” value [1, 3] was −21.7 (5.78) mg/dL, the “SBP (mmHg) LS Mean Difference (SE)” value [1, 3] was −3.4 (0.92) mmHg and the “A1C (%) LS Mean Difference (SE)” value [1, 4] was −0.54 (0.051) %. For the same compound, the “Body weight (kg) LS Mean Difference (SE)” value [1, 4] was −3.41 (0.247) kg, the “Fasting plasma glucose (mg/dL) LS Mean Difference (SE)” value [1, 4] was −24.3 (4.69) mg/dL and the “SBP (mmHg) LS Mean Difference (SE)” value [1, 4] was −3.2 (0.79) mmHg. The “A1C (%) LS Mean change (SE)” value [1, 3] was −0.72 (0.051) %, the “Body weight (kg) LS Mean change (SE)” value [1, 3] was −1.71 (0.157) kg and the “Fasting plasma glucose (mg/dL) LS Mean change (SE)” value [1, 3] was −10.4 (4.30) mg/dL. The “SBP (mmHg) LS Mean change (SE)” value [1, 3] was −1.7 (0.69) mmHg, the “A1C (%) LS Mean change (SE)” value [1, 4] was −0.86 (0.065) % and the “Body weight (kg) LS Mean change (SE)” value [1, 4] was −2.80 (0.277) kg. For the same compound, the “Fasting plasma glucose (mg/dL) LS Mean change (SE)” value [1, 4] was −23.5 (6.34) mg/dL, the “SBP (mmHg) LS Mean change (SE)” value [1, 4] was −3.8 (1.19) mmHg and the “efficacy compared to placebo on A1C and body weight in the overweight and obese subgroup” value ([1]; BMI ≥27 kg/m^2 vs <27 kg/m^2, InTandem 3) was “more favorable effect”. For the same compound, the “Primary endpoint: Patients achieving glycated hemoglobin <7% without DKA and no severe hypoglycemia, All patients, no.” value ([1]; Sotagliflozin 400 mg (n = 699), Week 24) was 200, the “Systolic blood pressure in patients with SBP ≥130 mm Hg at baseline, Week 16 LS mean change, LS mean difference from placebo” value ([1]; Sotagliflozin 400 mg vs placebo, Week 16, SBP ≥130 mm Hg at baseline) was −3.5 ± 1.11 mm Hg and the “Daily bolus insulin dose, Week 24 LS mean change from baseline ± SE, LS mean difference from placebo” value [1, 5] was −2.84 ± 0.61 IU/day. For the same compound, the “Daily bolus insulin dose, Week 24 LS mean percent change from baseline ± SE, LS mean difference from placebo” value [1, 5] was −12.32 ± 2.98%, the “Glycated hemoglobin, Week 24 LS mean change from baseline ± SE, LS mean difference from placebo” value [1, 5] was −0.46 ± 0.04% and the “Primary endpoint, All patients, LS mean difference from placebo (95% CI)” value [1, 5] was 13.4% (8.97 to 17.81). For the same compound, the “Weight, Week 24 LS mean change from baseline ± SE, LS mean difference from placebo” value [1, 5] was -2.98 ± 0.166 kg, the “Primary endpoint, Insulin pump users, LS mean difference from placebo (95% CI)” value ([1]; Sotagliflozin 400 mg vs placebo, Week 24, insulin pump users) was 15.9% (8.58 to 23.38) and the “Primary endpoint, Nonpump users, LS mean difference from placebo (95% CI)” value ([1]; Sotagliflozin 400 mg vs placebo, Week 24, nonpump users) was 11.8% (6.14 to 17.38). The “Systolic blood pressure in patients with SBP ≥130 mm Hg at baseline, Week 16 LS mean change from baseline ± SE” value [1, 6] was −9.2 ± 0.92 mm Hg, the “Systolic blood pressure in patients with SBP ≥130 mm Hg at baseline, Week 16 mean ± SD” value [1, 6] was 131.8 ± 12.02 mm Hg and the “Daily bolus insulin dose, Week 24 LS mean change from baseline ± SE” value ([1]; Sotagliflozin 400 mg, Week 24) was −3.93 ± 0.47 IU/day. For the same compound, the “Daily bolus insulin dose, Week 24 LS mean percent change from baseline ± SE” value ([1]; Sotagliflozin 400 mg, Week 24) was −5.71 ± 2.29%, the “Daily bolus insulin dose, Week 24 mean ± SD” value ([1]; Sotagliflozin 400 mg, Week 24) was 23.90 ± 15.76 IU/day and the “Glycated hemoglobin, Week 24 LS mean change from baseline ± SE” value ([1]; Sotagliflozin 400 mg, Week 24) was −0.79 ± 0.03%. The “Glycated hemoglobin, Week 24 mean ± SD” value ([1]; Sotagliflozin 400 mg, Week 24) was 7.41 ± 0.95%, the “Primary endpoint: Patients achieving glycated hemoglobin <7% without DKA and no severe hypoglycemia, All patients, (%)” value ([1]; Sotagliflozin 400 mg, Week 24) was 28.6% and the “Weight, Week 24 LS mean change from baseline ± SE” value ([1]; Sotagliflozin 400 mg, Week 24) was -2.21 ± 0.12 kg. For the same compound, the “Weight, Week 24 mean ± SD” value ([1]; Sotagliflozin 400 mg, Week 24) was 80.19 ± 17.02 kg, the “Primary endpoint, Insulin pump users, (%)” value [1, 7] was 32.0% and the “Primary endpoint, Insulin pump users, no.” value [1, 7] was 88. For the same compound, the “Primary endpoint, Nonpump users, (%)” value [1, 8] was 26.4%, the “Primary endpoint, Nonpump users, no.” value [1, 8] was 112 and the “2-hour postprandial plasma glucose (mg/dL) LS Mean Difference (SE)” value [2, 3] was −66.0 (20.22) mg/dL. For the same compound, the “A1C (%) LS Mean Difference (SE)” value [2, 3] was −0.32 (0.062) %, the “Body weight (kg) LS Mean Difference (SE)” value [2, 3] was −2.06 (0.240) kg and the “DDS2 (score) LS Mean Difference (SE)” value [2, 3] was −0.4 (0.16) score. The “DTSQ (score) LS Mean Difference (SE)” value [2, 3] was 1.7 (0.42) score, the “Fasting plasma glucose (mg/dL) LS Mean Difference (SE)” value [2, 3] was −15.7 (5.69) mg/dL and the “SBP (mmHg) LS Mean Difference (SE)” value [2, 3] was −3.1 (0.97) mmHg. For the same compound, the “Time in range (%) LS Mean Difference (SE)” value [2, 3] was 1.638 (3.8450) %, the “A1C (%) LS Mean Difference (SE)” value [2, 9] was −0.20 (0.078) % and the “Body weight (kg) LS Mean Difference (SE)” value [2, 9] was −2.26 (0.317) kg. For the same compound, the “SBP (mmHg) LS Mean Difference (SE)” value [2, 9] was −4.1 (1.05) mmHg, the “2-hour postprandial plasma glucose (mg/dL) LS Mean Difference (SE)” value [2, 4] was −19.0 (14.71) mg/dL and the “A1C (%) LS Mean Difference (SE)” value [2, 4] was −0.39 (0.046) %. For the same compound, the “Body weight (kg) LS Mean Difference (SE)” value [2, 4] was −2.27 (0.272) kg, the “DDS2 (score) LS Mean Difference (SE)” value [2, 4] was −0.6 (0.13) score and the “DTSQ (score) LS Mean Difference (SE)” value [2, 4] was 2.6 (0.35) score. For the same compound, the “Fasting plasma glucose (mg/dL) LS Mean Difference (SE)” value [2, 4] was −15.7 (4.57) mg/dL, the “SBP (mmHg) LS Mean Difference (SE)” value [2, 4] was −1.3 (0.87) mmHg and the “Time in range (%) LS Mean Difference (SE)” value [2, 4] was 8.171 (2.9713) %. The “A1C (%) LS Mean Difference (SE)” value [2, 10] was −0.24 (0.056) %, the “Body weight (kg) LS Mean Difference (SE)” value [2, 10] was −3.01 (0.357) kg and the “SBP (mmHg) LS Mean Difference (SE)” value [2, 10] was −2.1 (0.90) mmHg. The “2-hour postprandial plasma glucose (mg/dL) LS Mean change (SE)” value [2, 11] was −49.5 (17.63) mg/dL, the “A1C (%) LS Mean change (SE)” value [2, 11] was −0.38 (0.047) % and the “Body weight (kg) LS Mean change (SE)” value [2, 11] was −1.43 (0.177) kg. For the same compound, the “DDS2 (score) LS Mean change (SE)” value [2, 11] was −0.2 (0.13) score, the “DTSQ (score) LS Mean change (SE)” value [2, 11] was 1.7 (0.33) score and the “Fasting plasma glucose (mg/dL) LS Mean change (SE)” value [2, 11] was −10.8 (4.22) mg/dL. The “SBP (mmHg) LS Mean change (SE)” value [2, 11] was −3.0 (0.74) mmHg, the “Time in range (%) LS Mean change (SE)” value [2, 11] was −0.532 (2.9540) % and the “A1C (%) LS Mean change (SE)” value [2, 12] was −0.19 (0.057) %. For the same compound, the “Body weight (kg) LS Mean change (SE)” value [2, 12] was −1.57 (0.230) kg, the “SBP (mmHg) LS Mean change (SE)” value [2, 12] was −1.4 (0.79) mmHg and the “2-hour postprandial plasma glucose (mg/dL) LS Mean change (SE)” value ([2]; 200 mg, Baseline BMI ≥27 kg/m^2, Week 24) was −36.8 (11.72) mg/dL.
